Like-named read-outs stand apart in the source and are kept apart here.
Experiments:
[1] = target: T1, α1β2γ2 GABAA receptor (Homo sapiens, UniProt P14867+P47870); experiment: Patch clamp electrophysiology assay of recombinant α1β2γ2 GABAA receptors (potentiation of 2 μM GABA-evoked Cl- current); type: cell-based; conditions: HEK293T cells stably transfected with α1β2γ2 GABAA; for EC50: whole cell, 2 μM GABA, -80 mV; for Emax: HEK-293T, potentiation of 2 μM GABA current
T1 construct: expressed in transfected cells
T1 sequence (P14867 28-456): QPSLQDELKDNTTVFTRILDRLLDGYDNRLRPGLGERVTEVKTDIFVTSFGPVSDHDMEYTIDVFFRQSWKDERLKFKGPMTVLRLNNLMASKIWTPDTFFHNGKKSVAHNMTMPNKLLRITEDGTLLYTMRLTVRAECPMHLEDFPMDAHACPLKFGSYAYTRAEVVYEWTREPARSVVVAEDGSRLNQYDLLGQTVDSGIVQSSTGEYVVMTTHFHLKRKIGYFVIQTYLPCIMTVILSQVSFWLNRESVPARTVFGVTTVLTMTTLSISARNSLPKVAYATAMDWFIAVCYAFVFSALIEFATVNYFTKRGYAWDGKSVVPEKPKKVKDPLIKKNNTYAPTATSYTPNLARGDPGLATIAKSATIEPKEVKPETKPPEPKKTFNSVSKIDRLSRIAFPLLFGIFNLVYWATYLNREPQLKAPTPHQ
T1 sequence (P47870 25-512 limits assumed): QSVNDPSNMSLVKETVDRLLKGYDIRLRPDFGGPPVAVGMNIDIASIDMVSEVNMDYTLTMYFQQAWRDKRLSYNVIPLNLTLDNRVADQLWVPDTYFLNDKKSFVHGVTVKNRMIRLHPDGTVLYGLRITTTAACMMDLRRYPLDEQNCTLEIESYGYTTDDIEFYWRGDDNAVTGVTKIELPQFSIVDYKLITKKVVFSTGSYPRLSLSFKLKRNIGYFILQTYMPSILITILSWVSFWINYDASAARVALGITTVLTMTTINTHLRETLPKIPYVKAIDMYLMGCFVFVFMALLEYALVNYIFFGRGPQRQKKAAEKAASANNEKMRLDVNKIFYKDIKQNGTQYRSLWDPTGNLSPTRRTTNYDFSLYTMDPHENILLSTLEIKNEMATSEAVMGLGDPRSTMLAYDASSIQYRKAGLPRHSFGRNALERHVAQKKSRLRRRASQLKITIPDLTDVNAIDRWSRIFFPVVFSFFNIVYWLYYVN
T1 sequence (P18507 40-475 partner): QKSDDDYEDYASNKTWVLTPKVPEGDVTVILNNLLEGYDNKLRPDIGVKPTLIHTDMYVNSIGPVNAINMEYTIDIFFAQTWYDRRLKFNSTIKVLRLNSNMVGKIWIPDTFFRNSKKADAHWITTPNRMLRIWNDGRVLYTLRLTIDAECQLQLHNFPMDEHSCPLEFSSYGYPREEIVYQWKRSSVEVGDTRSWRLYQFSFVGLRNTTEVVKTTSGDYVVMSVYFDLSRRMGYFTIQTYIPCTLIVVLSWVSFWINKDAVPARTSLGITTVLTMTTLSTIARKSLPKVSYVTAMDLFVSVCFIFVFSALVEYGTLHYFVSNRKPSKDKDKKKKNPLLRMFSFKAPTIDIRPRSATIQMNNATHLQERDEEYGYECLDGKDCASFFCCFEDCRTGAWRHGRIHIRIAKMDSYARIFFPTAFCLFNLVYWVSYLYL
Method: Cellular electrophysiology is used to measure the pharmacological properties of GABAA receptor modulators in heterologous cell systems. Each compound is tested for its ability to affect GABA mediated currents at a submaximal agonist dose (GABA EC20=2 μM). HEK293T cells are stably transfected with the α1β2γ2 subunits of the GABAA receptor. Flasks or dishes of HEK293 GABAA cells were maintained in the medium (DMEM, 11% (v/v) heat inactivated FBS, 100 or 200 μg/ml G418, 40 μg/ml Hygromycin B, 80 μg/ml Zeocin) and incubated at 37° C. in a humidified incubator with 5% CO2. 12 to 24 hours prior to electrophysiological recordings, the cells were plated on glass cover slips placed in culture dishes and maintained under the same incubation and media conditions. The number of cells being plated on the cover slip should reach a confluence rate at which majority of the cells are single.
For the electrophysiological recordings in the study the following external and internal solutions were used (Table 1):
HEKA EPC 10 USB patch clamp amplifier (from HEKA Elektronik, Germany) was used in the whole cell recording. A cover slip with plenty of single HEK293T-GABAA cells on the surface was removed and placed into a continuously perfused (approximately 1-2 ml/minute) recording chamber mounted on an inverted microscope. GABAA Cl^− current was recorded from single cell using standard whole cell recording techniques. 2 μM GABA was used to evoke GABAA Cl^− current (2 μM of GABA was the EC10-EC20 value of agonist GABA obtained internally on the stable GABAA cells used in this study). After achieving break-in (whole-cell) configuration, the cell was voltage clamped at a holding potential of −80 mV. Only stable cells meeting the recording parameters (membrane resistance Rm>500 MΩ, access resistance (Ra)<15 MΩ, leak current<100 pA in 90% of the recording time) were used. 2 μM GABA was applied to the cell to induce stable Cl^− current first as control for about 2 seconds, test compounds (i.e., compounds of formula (AI), (I), (AII), and (II), or any subgenera thereof) were followed to be applied to the cells for 3 min, then 2 μM GABA was applied to observe the potentiation effect on the GABAA Cl^− current. Different doses of test compound from low to high were applied to the same cell when the cell was stable. A cell was considered stable when current size evoked by 2 μM GABA applied to the cell from time to time was similar. To minimize the possible desensitation of GABAA Cl^− current, duration between applications of test articles was set to 180 seconds.
Test compounds were dissolved in DMSO to form stock solutions (10 mM). Test compounds were diluted to 0.003, 0.01, 0.03, 0.1, 0.3, 1, 3 and 10 μM in bath solution. AU concentrations of test articles were tested on each cell. Data were analyzed using software provided by HEKA, Microsoft Excel and Graphpad Prism (Table 2).

[2] = Mouse PK study (i.v. and p.o.); type: in vivo; conditions: plasma, male CD1 mice; for half-life: read-out: T1/2 (hr) i.v. (converted); for Vd: read-out: Vss; for bioavailability: 5 mg/kg p.o. vs 1 mg/kg i.v.
Method: Test compounds were dosed to male CD1 mice at 5 mg/kg by oral gavage (p.o.) or 1 mg/kg by intravenous injection (i.v.). Blood samples were taken at 0.083, 0.25, 0.5, 1.0, 3.0, 6.0 and 24 hours post i.v. dosing and at 0.25, 0.5, 1.0, 3.0, 6.0 and 24 hours post p.o. dosing. The plasma concentration of compounds were determined by HPLC.

[3] = iv, 1 mg/kg i.v., read-out: AUClast (hr*ng/mL) i.v.
[4] = po, 5 mg/kg p.o., read-out: AUClast (hr*ng/mL) p.o.

SMILES	EC50 [1]	Emax [1]	clearance ([2]; iv, 1 mg/kg i.v.)	AUC(0-t) [2, 3]	half-life ([2]; iv, 1 mg/kg i.v.)	Vd ([2]; iv, 1 mg/kg i.v.)	Cmax ([2]; po, 5 mg/kg p.o.)	Tmax ([2]; po, 5 mg/kg p.o.)	bioavailability ([2]; po)	AUC(0-t) [2, 4]
C[C@@]1(O)CC[C@H]2[C@H](CC[C@@H]3[C@@H]2CC[C@]2(C)[C@@H](C(=O)Cn4nnn(-c5cocn5)c4=O)CC[C@@H]32)C1 [Example 24, 1-(2-((3R,5R,8R,9R,10S,13S,14S,17S)-3-hydroxy-3,13-dimethylhexadecahydro-1H-cyclopenta[a]phenanthren-17-yl)-2-oxoethyl)-4-(oxazol-4-yl)-1,4-dihydro-5H-tetrazol-5-one]	64 nM	698%	15.5 mL/min/kg	998 ng·h/mL	1.57 h	1.87 L/kg	775 ng/mL	3 h	172%	9180 ng·h/mL
C[C@@]1(O)CC[C@H]2[C@H](CC[C@@H]3[C@@H]2CC[C@]2(C)[C@@H](C(=O)Cn4nnn(-c5cccc(F)c5)c4=O)CC[C@@H]32)C1 [Example 12, 1-(3-fluorophenyl)-4-(2-((3R,5R,8R,9R,10S,13S,14S,17S)-3-hydroxy-3,13-dimethylhexadecahydro-1H-cyclopenta[a]phenanthren-17-yl)-2-oxoethyl)-1,4-dihydro-5H-tetrazol-5-one]	9.3 nM	–	8.33 mL/min/kg	1880 ng·h/mL	6.22 h	2.86 L/kg	388 ng/mL	1 h	42.4%	4140 ng·h/mL
Cn1ccc(-n2nnn(CC(=O)[C@H]3CC[C@H]4[C@@H]5CC[C@@H]6C[C@](C)(O)CC[C@@H]6[C@H]5CC[C@]34C)c2=O)n1 [Example 27, 1-(2-((3R,5R,8R,9R,10S,13S,14S,17S)-3-hydroxy-3,13-dimethylhexadecahydro-1H-cyclopenta[a]phenanthren-17-yl)-2-oxoethyl)-4-(1-methyl-1H-pyrazol-3-yl)-1,4-dihydro-5H-tetrazol-5-one]	120 nM	–	14.5 mL/min/kg	1110 ng·h/mL	1.09 h	1.14 L/kg	1070 ng/mL	1 h	153%	8770 ng·h/mL
C[C@@]1(O)CC[C@H]2[C@H](CC[C@@H]3[C@@H]2CC[C@]2(C)[C@@H](C(=O)Cn4nnn(-c5cccc(C#N)c5)c4=O)CC[C@@H]32)C1 [Example 14, 3-(4-(2-((3R,5R,8R,9R,10S,13S,14S,17S)-3-hydroxy-3,13-dimethylhexadecahydro-1H-cyclopenta[a]phenanthren-17-yl)-2-oxoethyl)-5-oxo-4,5-dihydro-1H-tetrazol-1-yl)benzonitrile]	7 nM	974%	20.5 mL/min/kg	771 ng·h/mL	1.44 h	1.92 L/kg	250 ng/mL	1 h	28.9%	1120 ng·h/mL
C[C@@]1(O)CC[C@H]2[C@H](CC[C@@H]3[C@@H]2CC[C@]2(C)[C@@H](C(=O)Cn4nnn(CC5CC5)c4=O)CC[C@@H]32)C1 [Example 7, 1-(cyclopropylmethyl)-4-(2-((3R,5R,8R,9R,10S,13S,14S,17S)-3-hydroxy-3,13-dimethylhexadecahydro-1H-cyclopenta[a]phenanthren-17-yl)-2-oxoethyl)-1,4-dihydro-5H-tetrazol-5-one]	99 nM	–	68.7 mL/min/kg	239 ng·h/mL	0.6 h	1.69 L/kg	186 ng/mL	0.5 h	27.6%	326 ng·h/mL
C[C@@]1(O)CC[C@H]2[C@H](CC[C@@H]3[C@@H]2CC[C@]2(C)[C@@H](C(=O)Cn4nnn(-c5ccn[nH]5)c4=O)CC[C@@H]32)C1 [Example 25, 1-(2-((3R,5R,8R,9R,10S,13S,14S,17S)-3-hydroxy-3,13-dimethylhexadecahydro-1H-cyclopenta[a]phenanthren-17-yl)-2-oxoethyl)-4-(1H-pyrazol-5-yl)-1,4-dihydro-5H-tetrazol-5-one]	130 nM	–	6.5 mL/min/kg	2480 ng·h/mL	4.63 h	1.88 L/kg	1190 ng/mL	3 h	106%	12800 ng·h/mL

— patent US20220089636A1, “TETRAZOLONE SUBSTITUTED STEROIDS AND USE THEREOF” (Beijing Xuanyi PharmaSciences Co., Ltd., priority 2019, published 2022)
